The results in this text go back to patent US6503869B1, “Enhanced post-emergent herbicidal compositions containing ammonium salts and methods of using the same” (Falcon Lab LLC, priority 2000, dated 2003).

Molecules are shown by their SMILES.

Test [1] relates to fescue. As to the kind of experiment: Field study on fescue suppression. The format is in vivo. As to conditions: one week after spraying; 0.2% ammonium pelargonate alone; 15 gpa. An excerpt: A field study was made on fescue suppression (fescue thatch, 9-10 in. height, blade length 10-16 in.) using a 0.2% by weight solution of ammonium pelargonate alone, glyphosate ammonium salt alone (ROUNDUP DF®) at application rates of both 0.21 lb. active ingredient/acre (ai/A) and 0.42 lb. ai/A and a combination of 0.2% ammonium pelargonate with the same rates of ROUNDUP DF. The spray rate was 15 gal./acre (gpa) in all cases. One week after spraying, the following results were obtained: […]

Test [2] concerns weeds and grass. Nature of the test: Time to visual phytotoxic effect after application to weeds (general statement). As to conditions: without ammonium pelargonate; 'or longer'. The format is in vivo. An excerpt:
As an example, weed and grass necrosis may approach 100% within 24 hrs. with glyphosate in combination with ammonium pelargonate, compared to 3-4 days or longer without the ammonium pelargonate.
Unwanted vegetation may be killed by applying to the locus of the vegetation the herbicidal composition of the invention. The herbicidal composition of the invention may be contacted with the unwanted vegetation by spraying or otherwise distributing the composition onto the foliage in accordance with the manufacturers' directions of the post-emergent herbicide [to which has been added the compound of formula (I)]. […] Most importantly, the invention dramatically reduces the kill time. Leaves of vegetation sprayed with herbicidal compositions of the invention usually start to shrivel or turn brown within hours of a single application. Necrosis is evident, usually in 24 hours. Typically unwanted vegetation is dead in less than 24 hours compared to 3 to 4 days when the post-emergent is solely used. Since use of the compound of formula (I) decreases the amount of post-emergent herbicide required, the invention dramatically reduces costs.

In the case of `CCCCCCCCC(=O)O.N` [Ammonium Pelargonate, ammonium pelargonate], the necrosis in test [1] was determined as 0%.

As to `O=C(O)CNCP(=O)(O)O` [glyphosate], the “time until weed and grass necrosis may approach 100%” value in test [2] fell in the range of 3 to 4 days.
